The record followed here is US9726659B2, “CMPF as a biomarker for diabetes and associated methods” (The Governing Council of the University of Toronto, priority 2012, dated 2017).

The test system of one data set is primary human islets. Briefly: Glucose-stimulated insulin secretion in primary human islets. Type of data set: cell-based. Particulars: 200 uM, 24 hour pre-incubation, vs vehicle and 20 uM. On the procedure: (§1) LG=2.8 mM glucose, HG=16.7 mM glucose, KCl=16.7 mM glucose+30 mM KCl. *p<0.05.
(§2) Since beta cell failure is a major underlying cause of both GDM and T2D, the effect of increased CMPF on beta cell function was investigated both in vitro and in vivo. Using physiological concentrations of CMPF (20 uM and 200 uM, as observed in our NGT-pregnant and GDM-pregnant samples respectively (FIG. 2)), as well as a vehicle control (EtOH), its effect was studied on glucose-stimulated insulin secretion (GSIS) and insulin secretion in response to direct depolarization using the secretagogue KCl in an immortalized murine beta cell line (MIN6), as well as primary isolated human and murine islets (FIG. 3A). […] Therefore, high physiologically relevant levels of CMPF impair GSIS.

The subject of the next data set is primary murine islets. The data set can be described thus: Glucose- and KCl-stimulated insulin secretion in primary murine islets. The class given is cell-based. To be noted: 200 uM. On the procedure: as §1, §2
For another data set, the system named is murine islets. The data set can be described thus: Total insulin content in murine islets. The class given is cell-based. Particulars: 200 uM. On the procedure: Murine islets were treated for 24 hrs with vehicle control (0 CMPF), 20 uM (20 CMPF), or 200 uM (200 CMPF) CMPF, and assessed for total insulin content and mRNA expression. […] Decreased expression of insulin processing enzymes PCSK1, 2 and CpE (F), (G), (H) indicate that CMPF may also impair post-translational insulin processing. Finally, CMPF causes decreased expression of the beta cell glucose transporter GLUT2, and GCK, the rate-limiting enzyme critical for glucose metabolism (I) and (J), perhaps impairing glucose sensing and metabolism. In all cases n=4, *P<0.05.
(§3) In the absence of apoptosis and necrosis, CMPF must be impairing GSIS by causing beta cell dysfunction. First, the effect of CMPF treatment on insulin biosynthesis was investigated to determine if insulin is available to be released upon stimulation. MIN6, murine and human islets were treated with vehicle control, 20 uM and 200 uM CMPF for 4 hrs (MIN6) or 24 hrs (islets), and total insulin content measured. […] Lower total insulin content may be due to either defective insulin processing from proinsulin to mature insulin, or insufficient insulin transcription. To determine the mechanism through which CMPF is reducing total insulin content, quantitative PCR (qPCR) was performed on RNA that was isolated from murine islets treated with either vehicle control or 200 uM CMPF for 24 hrs.

The next data set deals with human islets. Briefly: Total insulin content in human islets. Type of data set: cell-based. Particulars: 200 uM, 24 hrs, vs vehicle. On the procedure: as §3
The test system of the next data set is mice. Briefly: Hyperinsulinemic euglycemic clamps after 7 days of IP injections. Particulars: 7 days IP. The class given is in vivo. On the procedure: A) Schematic illustrating injection and surgical timeline. B) Glucose infusion rate (C) glucose appearance and (D) disappearance rates and (E) glycolytic rate in 7 day CMPF-injected mice compared to vehicle controls (N=4/group). […] Values mean±SEM.
Hyperinsulinemic euglycemic clamps were performed as previously described (Liu et al., 2012) following 7 days of IP injections with either CMPF or vehicle. Internal and external cannulation was performed on day 3 of the injection protocol.
As shown in Example 1, elevated plasma CMPF results in glucose intolerance and impaired insulin secretion. […] To more thoroughly examine integrated glucose homeostasis, hyperinsulinemic euglycemic clamps were performed.

Data set [1] concerns mouse islets. Briefly: ROS accumulation in isolated islets (mitoSOX red, CM-H2-DCFDA). Particulars: 200 μM, after 4 and 24 hrs of treatment. Type of data set: cell-based. On the procedure: A) Proinsulin in the media of 24 hr treated islets (n=4/group). B) Mitochondrial membrane potential (MMP) following acute addition of vehicle control or 200 μM of CMPF (N=3/group). C) ROS levels in 4- and 24-hour treated mouse islets with representative images (N=10-15 islets/mouse from 4 mice/group). D) Expression of antioxidant genes Cat and (e) Ucp2 (n=4/group). F) ROS accumulation in 24 hr-treated islets treated with 500 μM NAC (n=10 islets/mouse from 4 mice/group). G) GSIS and (h) total insulin content from 24 hr-treated islets co-treated with 500 μM NAC (n=4/group). Western blots showing (i) Ser9 phosphorylation of GSK3β, (j) Ser473 phosphorylation of AKT (n=3/group). K) Immunofluorescent staining showing nuclear translocation of FOXO1 and (l) PDX1 with CMPF and NAC treatment (n=3-6). Quantification of nuclear percentage of (m) FOXO1 and (n) PDX1 based on immunofluorescent staining with CMPF and NAC treatment. O) Western blots showing protein abundance of PDX1 and FOXO1. Values are mean+/−SEM. Student's t-test (a, c-j, m-o), one-way ANOVA (b). *P<0.05, **P<0.01, ***P<0.001.
The level of superoxide and H2O2 were determined using mitoSOX red and 2′,7′-dichlorodihydro fluorescein diacetate (CM-H2-DCFDA) respectively (Molecular Probes, Invitrogen, Canada) in isolated islets treated with either vehicle control or 200 μM CMPF for 4 or 24 hours, as previously described (Lee et al. 2009). […]

Data set [2] has as its system mouse islets. Briefly: Microarray analysis of 24 hr treated islets. Particulars: 24 hr treatment. Type of data set: cell-based. On the procedure: A) Expression of insulin, insulin processing enzymes, insulin transcription factors and glucose-sensing genes in 24-hour treated islets (N=5-6/group). B) MMP following 24-hour incubation with control or 200 μM CMPF, and change in fluorescence (N=4/group). […] Values are mean+/−SEM. Student's t-test (a,c), one-way ANOVA (b). *P<0.05, **P<0.01
Total RNA was extracted from 24 hour vehicle or CMPF-treated islets using the Qiagen RNeasy Plus mini kit (Hilden, Germany). Microarray analysis was performed as previously described (Basford et al. 2012) using the Affymetrix Mouse 430 2.0 Gene Chip at the University Health Network microarray center (Toronto, Canada). Significant changes were defined as P<0.05. Microarray data will be available on the NCBI GEO database at the time of publication. Human islet microarray data can be found at GE040709. Reverse transcription from total RNA and quantitative real time PCR (qPCR) analysis was performed as previously described (Basford et al. 2012). Primers were designed using Primer3 software (NCBI). Data were normalized to beta actin mRNA.
Given that CMPF causes hyperinsulinemia during the fed-state in vivo, and exaggerated secretion of insulin from islets under non-stimulatory conditions in vitro, we rationalized that there must be a defect in glucose-sensing and/or secretion of insulin that could not be solely explained by effects on insulin production. […] To confirm changes in mitochondrial function, 24 hr CMPF treated islets were analyzed by microarray. […] When organized based on biological process, the largest differentially expressed cluster encompassed genes involved in metabolism (38%) (FIG. 17c). […] Such a switch can decrease the beta-cell's ability to sense and metabolize glucose, limiting their capacity for GSIS thus may explain CMPF's effect on beta-cells (Hue et al., 2009).

As to `CCCc1oc(CCC(=O)O)c(C(=O)O)c1C` [CMPF, 3-carboxy-4-methyl-5-propyl-2-furanpropanoic acid], in the data set with primary human islets, the GSIS result is listed as “impairs GSIS”. Besides, the GSIS entry in the data set on primary murine islets (24 hour pre-incubation, vs vehicle and 20 uM) was “impairs GSIS”. In the data set with primary murine islets (CD1 mouse islets, 24 hours), the “glucose- and KCl-stimulated insulin secretion” value was “significantly impaired”. Also, in the data set on murine islets, the “total DNA” value is listed as “absence of changes”. Besides, in the data set on murine islets (24 hrs, vs vehicle), the total insulin content entry was “significantly reduced”. The total insulin content entry in the data set on human islets is reported as “significantly reduced”. Also, in the data set on mice, the “glucose appearance, basal” value is on record as “significantly lower”; the “glycolytic rate, response to insulin (post clamp/basal)” value is given as “no difference”; the insulin appearance post-clamp result is listed as “significantly reduced”. Besides, the glucose infusion rate entry in the data set on mice (N=4/group) is “significant reduction”. Moreover, the “increase in ROS over controls” value in the data set with mouse islets [1] is given as 2 fold. In the data set on mouse islets [2], the “genes related to fat oxidation” value is “significant upregulation”, the “share of differentially expressed genes in the metabolism cluster” value came to 38% and the “transcripts significantly differentially expressed” value came out at 6.2%.
